From ChEMBL document CHEMBL3885881, “DrugMatrix”

Species: Rattus norvegicus
Format: toxicity, organism-based, Sprague-Dawley
Conditions: in vivo, po, route oral GAVAGE, […]; for ABSOLUTE EOSINOPHIL / ABSOLUTE LYMPHOCYTE / ABSOLUTE MONOCYTE / ABSOLUTE SEGMENTED NEUTROPHIL / BASOPHIL / EOSINOPHIL / ERYTHROCYTE COUNT / HEMATOCRIT / HEMOGLOBIN / LEUKOCYTE COUNT / LYMPHOCYTE / MEAN CORPUSCULAR HEMOGLOBIN / MEAN CORPUSCULAR HEMOGLOBIN CONCENTRATION / MEAN CORPUSCULAR VOLUME / MONOCYTE / NEUTROPHIL / NUCLEATED RED BLOOD CELLS / PLATELET COUNT: tissue Blood; for ALANINE AMINOTRANSFERASE / ALKALINE PHOSPHATASE / ASPARTATE AMINOTRANSFERASE / BLOOD UREA NITROGEN / CARBON DIOXIDE / CHLORIDE / CHOLESTEROL / CREATINE PHOSPHOKINASE / CREATININE / GLUCOSE / LACTATE DEHYDROGENASE / LIPASE / PHOSPHORUS / POTASSIUM / SODIUM / TOTAL BILIRUBIN / TOTAL PROTEIN / URIC ACID: tissue Plasma
[1] = 100 mg/kg, 24 h, dose level Low, time 1 day
[2] = 700 mg/kg, 6 h, dose level High, time 0.25 day
[3] = 700 mg/kg, 24 h, dose level High, time 1 day

Description: DrugMatrix - Regimen: Single

Cc1ccc(C)c(OCCCC(C)(C)C(=O)O)c1 [GEMFIBROZIL]
ABSOLUTE EOSINOPHIL [1]: 126.33 CELLS/uL
ABSOLUTE LYMPHOCYTE [1]: 13618.33 CELLS/uL
ABSOLUTE MONOCYTE [1]: 235.33 CELLS/uL
ABSOLUTE SEGMENTED NEUTROPHIL [1]: 1320 CELLS/uL
BASOPHIL [1]: 0%
EOSINOPHIL [1]: 0.83%
ERYTHROCYTE COUNT [1]: 5.54 x10E6/uL
HEMATOCRIT [1]: 35.43%
HEMOGLOBIN [1]: 13.82 G/DL
LEUKOCYTE COUNT [1]: 15.3 x10E3/uL
LYMPHOCYTE [1]: 89.17%
MEAN CORPUSCULAR HEMOGLOBIN [1]: 25.02 pg
MEAN CORPUSCULAR HEMOGLOBIN CONCENTRATION [1]: 39 G/DL
MEAN CORPUSCULAR VOLUME [1]: 64.12 fL
MONOCYTE [1]: 1.5%
NEUTROPHIL [1]: 8.5%
NUCLEATED RED BLOOD CELLS [1]: 0 /100WBC
PLATELET COUNT [1]: 879.83 x10E3/uL
ALANINE AMINOTRANSFERASE [1]: 82.17 u/L
ALKALINE PHOSPHATASE [1]: 348.5 u/L
ASPARTATE AMINOTRANSFERASE [1]: 88.67 u/L
BLOOD UREA NITROGEN [1]: 11.17 mg/dL
CARBON DIOXIDE [1]: 30.17 mmol/L
CHLORIDE [1]: 101.33 MEQ/L
CHOLESTEROL [1]: 57.17 mg/dL
CREATINE PHOSPHOKINASE [1]: 237 u/L
CREATININE [1]: 0.18 mg/dL
GLUCOSE [1]: 138.33 mg/dL
LACTATE DEHYDROGENASE [1]: 130.5 u/L
LIPASE [1]: 8.67 u/L
PHOSPHORUS [1]: 9.87 mg/dL
POTASSIUM [1]: 6.21 MEQ/L
SODIUM [1]: 146.35 MEQ/L
TOTAL BILIRUBIN [1]: 0.15 mg/dL
TOTAL PROTEIN [1]: 5.83 G/DL
URIC ACID [1]: 1.02 mg/dL
ABSOLUTE EOSINOPHIL [2]: 0 CELLS/uL
ABSOLUTE LYMPHOCYTE [2]: 11512.83 CELLS/uL
ABSOLUTE MONOCYTE [2]: 281.33 CELLS/uL
ABSOLUTE SEGMENTED NEUTROPHIL [2]: 1289.17 CELLS/uL
BASOPHIL [2]: 0%
EOSINOPHIL [2]: 0%
ERYTHROCYTE COUNT [2]: 5.72 x10E6/uL
HEMATOCRIT [2]: 36.68%
HEMOGLOBIN [2]: 14.32 G/DL
LEUKOCYTE COUNT [2]: 13.08 x10E3/uL
LYMPHOCYTE [2]: 87.5%
MEAN CORPUSCULAR HEMOGLOBIN [2]: 25.02 pg
MEAN CORPUSCULAR HEMOGLOBIN CONCENTRATION [2]: 39.02 G/DL
MEAN CORPUSCULAR VOLUME [2]: 64.17 fL
MONOCYTE [2]: 2.33%
NEUTROPHIL [2]: 10.17%
NUCLEATED RED BLOOD CELLS [2]: 0 /100WBC
PLATELET COUNT [2]: 1058.5 x10E3/uL
ALANINE AMINOTRANSFERASE [2]: 68.17 u/L
ALKALINE PHOSPHATASE [2]: 373.33 u/L
ASPARTATE AMINOTRANSFERASE [2]: 85.5 u/L
BLOOD UREA NITROGEN [2]: 9.83 mg/dL
CARBON DIOXIDE [2]: 30.5 mmol/L
CHLORIDE [2]: 95.17 MEQ/L
CHOLESTEROL [2]: 81.83 mg/dL
CREATINE PHOSPHOKINASE [2]: 224.83 u/L
CREATININE [2]: 0.16 mg/dL
GLUCOSE [2]: 138.17 mg/dL
LACTATE DEHYDROGENASE [2]: 127.17 u/L
LIPASE [2]: 12.33 u/L
PHOSPHORUS [2]: 11.42 mg/dL
POTASSIUM [2]: 6.25 MEQ/L
SODIUM [2]: 143.7 MEQ/L
TOTAL BILIRUBIN [2]: 0.68 mg/dL
TOTAL PROTEIN [2]: 6.2 G/DL
URIC ACID [2]: 1.3 mg/dL
ABSOLUTE EOSINOPHIL [3]: 30.33 CELLS/uL
ABSOLUTE LYMPHOCYTE [3]: 15144 CELLS/uL
ABSOLUTE MONOCYTE [3]: 266 CELLS/uL
ABSOLUTE SEGMENTED NEUTROPHIL [3]: 893 CELLS/uL
BASOPHIL [3]: 0%
EOSINOPHIL [3]: 0.17%
ERYTHROCYTE COUNT [3]: 5.34 x10E6/uL
HEMATOCRIT [3]: 34.55%
HEMOGLOBIN [3]: 13.67 G/DL
LEUKOCYTE COUNT [3]: 16.33 x10E3/uL
LYMPHOCYTE [3]: 92.33%
MEAN CORPUSCULAR HEMOGLOBIN [3]: 25.58 pg
MEAN CORPUSCULAR HEMOGLOBIN CONCENTRATION [3]: 39.58 G/DL
MEAN CORPUSCULAR VOLUME [3]: 64.72 fL
MONOCYTE [3]: 1.67%
NEUTROPHIL [3]: 5.83%
NUCLEATED RED BLOOD CELLS [3]: 0.33 /100WBC
PLATELET COUNT [3]: 1050.67 x10E3/uL
ALANINE AMINOTRANSFERASE [3]: 55.83 u/L
ALKALINE PHOSPHATASE [3]: 484.5 u/L
ASPARTATE AMINOTRANSFERASE [3]: 65.17 u/L
BLOOD UREA NITROGEN [3]: 10.67 mg/dL
CARBON DIOXIDE [3]: 28 mmol/L
CHLORIDE [3]: 100 MEQ/L
CHOLESTEROL [3]: 71 mg/dL
CREATINE PHOSPHOKINASE [3]: 320.67 u/L
CREATININE [3]: 0.21 mg/dL
GLUCOSE [3]: 140.83 mg/dL
LACTATE DEHYDROGENASE [3]: 120.67 u/L
LIPASE [3]: 9.67 u/L
PHOSPHORUS [3]: 10.38 mg/dL
POTASSIUM [3]: 5.59 MEQ/L
SODIUM [3]: 146.73 MEQ/L
TOTAL BILIRUBIN [3]: 0.25 mg/dL
TOTAL PROTEIN [3]: 5.97 G/DL
URIC ACID [3]: 1.07 mg/dL
